Measurements taken from patent US20260191864A1, “Uses of Hydroimidazopyridopyrimidinone Derivatives for Managing Aneurysms or Other Vascular Conditions or Diseases” (Emory University, priority 2022, published 2026).

Legend:
aortic aneurysms = settings: mice; aortic diameter at day 14 vs baseline (FIGS. 1A-1C)
Text: It is contemplated that VSMC phenotypic modulation is responsible for foam cell formation during atherosclerosis.
Data represents percentage of maximal aortic dilation on day 14 of each animal. The recording and subsequent analysis were blinded to the assignment of the treatment regimen.
Images were quantified using ImageJ plus/color deconvolution plugin.

vascular smooth muscle = vascular smooth muscle differentiation in vivo (ACTA2 smooth muscle actin staining); settings: mice, ACTA2 staining (FIG. 1D)

SMILES: Cc1ccccc1CN1C(=O)C2=C(CCN(Cc3ccccc3)C2)N2CCN=C12 [ONC201, 7-benzyl-4-(2-methylbenzyl)-2,4,6,7,8,9-hexahydroimidazo[1,2-a]pyrido[3,4-e]pyrimidin-5 (1H)-one]
- formation of aortic aneurysms (aortic aneurysms): inhibits the formation of aortic aneurysms in mice
- vascular smooth muscle differentiation (vascular smooth muscle): induces vascular smooth muscle differentiation in vivo
